According to patent publication US4774250A, “Composition and method for treating differentiated carcinoma or melanoma cells with thiapyrylium dyes” (Dana Farber Cancer Institute, priority 1987, dated 1988):
Like-named read-outs stand apart in the source and are kept apart here.

Legend:
[1] = tested on: CX-1 (human colon carcinoma); experiment: Clonogenic in vitro study, inhibition of cell colony formation, CX-1; assay type: cell-based; conditions: for S (selectivity value): comparative examples; for S (selectivity value) / Selectivity: CV-1 IC50 divided by CX-1 IC50; for IC50: Homo sapiens, Colon carcinoma cell, read-out: CX-1 (colon carcinoma cells IC50 value)
Experimental: This IC50 value is compared for both the CX-1 and CV-1. That is, the CV-1 value is divided by the value for CX-1. If the value is 10 μg/ml for CV-1, and […] for CX-1, then the dye is 10 times as effective in killing off the colon carcinoma cells, compared to the monkey epithelial cells. This is expressed as a selectivity "S" of 10. That is, in order to inhibit 50% of the normal cells, the drug requires ten times the concentration needed for inhibiting 50% of the cancer cells.

stomach cancer = stomach cancer in Japan, Antibiotics Chemother., Vol. 24, pages 149-159 (1978); cited from earlier work
[2] = tested on: human melanoma cell line, LOX; experiment: Melanoma test using nude mice protocol (LOX xenograft survival); assay type: in vivo, human melanoma cells in athymic Swiss nu/nu mice; conditions: male nude mice, 5 mg/kg IP daily for five days, then three times per week
From the text: (§1) FIGS. 1-6 are survival plots of cancer-bearing mice treated with the dyes of this invention, compared to a control group of such mice that were untreated. In these plots, "% survival" means the % of the total group (treated "T" or control "C") still surviving on the day in question. The 50% data point is selected for the T/C calculation, as being the point that is statistically meaningful.
(§2) Effectiveness against human cancer can be inferred by tests in the nude mouse-human xenograft model, hereinafter "nude mice protocol". […] 899-903, especially p. 889 (April 1985).
(§3) Nude mice, that is, those deficient in thymic functions, bred and maintained in pathogen-free conditions [See J. Natl. Cancer Inst. 51: 615-619 (1973)] were used in in vivo experiments. For each experiment, nude mice from the same litter and of the same sex which were over 3 months old and weighed at least 25 g were injected or implanted with cancer cells.
A human melanoma cell line, LOX, was used that grows rapidly when inoculated into the peritoneal cavity of athymic mice. […] Cells were then scored for viability with trypan blue and 5 million viable cells made up in 0.1 ml of Dulbecco modified Eagles' medium (DME) were injected intraperitoneally into a group of male athymic Swiss nu/nu mice. […]

[3] = tested on: CV-1 (normal monkey kidney epithelial cells); experiment: Clonogenic in vitro study, inhibition of cell colony formation, CV-1; assay type: cell-based; conditions: for IC50: Primates, Epithelial cell
From the text: As noted above, one of the advantages of the invention is that the thiapyryliums described herein selectively attack the cancer cells as opposed to normal cells. Although knowledge of the mechanism is not essential to the practice of the invention, it is believed this occurs through the preferential inhibition of ATP synthesis in the mitochondria of the cancer cells. Such selectivity is further shown in clonogenic in vitro studies carried out in conventional fashion. That is, cell cultures of CX-1 (human colon carcinoma) and CV-1 (normal monkey kidney epithelial cells) are prepared and treated at various concentrations, in the conventional manner, and the concentration of the dye that inhibits 50% of the cell colonies formation is denoted as IC50. This IC50 value is compared for both the CX-1 and CV-1. That is, the CV-1 value is divided by the value for CX-1. If the value is 10 μg/ml for CV-1, and […] for CX-1, then the dye is 10 times as effective in killing off the colon carcinoma cells, compared to the monkey epithelial cells. This is expressed as a selectivity "S" of 10. That is, in order to inhibit 50% of the normal cells, the drug requires ten times the concentration needed for inhibiting 50% of the cancer cells.
("Retest" in this table refers to a repeat of the clonogenic test on either an entirely different preparation of the compound, or on a different recrystallization of the same preparation. The slight variance in selectivity can be accounted for, it is speculated, by a different moisture content in the preparation or crystallization of the compounds.)

MB49 tumor cells = experiment: Treatment of mouse bladder carcinoma (MB49) using thiapyrylium dyes administered IP (survival); assay type: in vivo; conditions: MB49, male BDF1 mice, 2 mg/kg IP daily for 5 days, then twice a week
From the text: as §1
MB49 tumor cells, that is, mouse carcinoma cells induced by the carcinogen 7,12-dimethyl benz[a]anthracene, were injected intraperitoneally into normal male BDF1 mice (2×10^6 /mouse). Each drug treated group and control group had ten mice. Except for the control group, one of the thiapyrylium dyes of Ex. 1 and Ex. 2 was administered intraperitoneally starting the following day in the following manner: 2 mg/kg daily for 5 days followed by 2 mg/kg twice a week. The control group of 10 mice was treated with 0.25 ml of 5% dextrose in water and was the same control group used for both Ex. 5-6. The survival rate was calculated as in the previous examples. The results were that the dye of Ex. 1 produced a T/C of 227%, and the dye of Ex. 2 produced a T/C of 263%, as shown further in FIGS. 5-6.

[4] = tested on: human ovarian carcinoma line OVCAR-3; experiment: Ovarian carcinoma (OVCAR-3) using nude mice protocol (survival); assay type: in vivo, human ovarian carcinoma cells in nude mice; conditions: OVCAR-3, female nude mice, 5 mg/kg IP daily for five days, then twice weekly
From the text: as §1, §2, §3
Ex. 1 and 2 were repeated, except they were administered to female nude mice xenografted with human ovarian carcinoma line OVCAR-3. Ten mice were selected for treatment with the thiapyrylium, in an amount of 5 mg/kg administered IP 1 day after the cancer cells were injected. This was repeated as follows: daily for five days followed by twice weekly (usually on Tuesday and Thursday). Ten mice were used as the control group and were injected with 0.25 ml of 5% dextrose in water.

[5] = clonogenic, CX-1 human colon carcinoma
[6] = retest: different preparation or recrystallization, CX-1
[7] = clonogenic, CV-1 normal monkey kidney epithelial cells
[8] = retest: different preparation or recrystallization, CV-1

**Q.** With `CN(C)c1ccc(-c2cc(-c3ccccc3)[s+]c(-c3ccc(N(C)C)cc3)c2)cc1` [compound 6, reference compound] as the compound, how does the “S (selectivity value)” value [1] read?
**A.** 10.0

**Q.** With `ClCCN(CCCl)c1ccc(-c2cc(-c3ccccc3)[s+]c(-c3ccccc3)c2)cc1` [compound 9, reference compound] as the compound, how does the “S (selectivity value)” value [1] read?
**A.** < 5.0

**Q.** For `COc1cccc2c1C(=O)c1c(O)c3c(c(O)c1C2=O)C[C@@](O)(C(=O)CO)C[C@@H]3O[C@H]1C[C@H](N)[C@H](O)[C@H](C)O1` [Adriamycin], which effective response rate (stomach cancer) is on record?
**A.** 14.5%

**Q.** With `c1ccc(CN(Cc2ccccc2)c2ccc(-c3cc(-c4ccccc4)[s+]c(-c4ccccc4)c3)cc2)cc1` [compound 8, reference compound] as the compound, how does the “S (selectivity value)” value [1] read?
**A.** < 7.5

**Q.** Which results are given for `CN(C)c1ccc(-c2cc(-c3ccccc3)[s+]c(-c3ccccn3)c2)cc1` [T-2, 4-(4-dimethylaminophenyl)-2-phenyl-6-(2-pyridyl)thiapyrylium chloride]?
**A.** Selectivity [1]: 167; IC50 [1, 5]: 0.018 µg/mL; CX-1 (colon carcinoma cells IC50 value) [1, 6]: 0.005 µg/mL; Selectivity ([1]; retest): 60; T/C (test drug versus control, calculated based on 50% survival day) [2]: 228%; IC50 [3, 7]: 3 µg/mL; T/C (MB49 tumor cells): 227%; T/C [4]: 340%

**Q.** For `CN(C)c1ccc(-c2cc(-c3cccs3)[s+]c(-c3cccs3)c2)cc1` [compound 3, 2,6-Bis(2-thienyl)-4-(4-dimethylaminophenyl)thiapyrylium perchlorate, reference compound], which “S (selectivity value)” value [1] is on record?
**A.** 1.0

**Q.** With `CN(C)c1ccc(-c2cc(-c3ccccc3)[s+]c(-c3ccccc3)c2)cc1` [compound 2, reference compound] as the compound, how does the “S (selectivity value)” value [1] read?
**A.** 5.0

**Q.** For `CN(C)c1ccc(-c2cc(-c3ccccn3)[s+]c(-c3cccs3)c2)cc1` [T-4, 4-(4-dimethylaminophenyl)-2-(2-pyridyl)-6-(2-thienyl)thiapyrylium perchlorate], which Selectivity [1] is on record?
**A.** 333

**Q.** And the IC50 [1, 6]?
**A.** 0.015 µg/mL

**Q.** What about the Selectivity ([1]; retest) of the same compound?
**A.** 100

**Q.** What about the IC50 [3, 8] of the same compound?
**A.** 1.5 µg/mL

**Q.** What about the “CV-1 (normal cells IC50 value)” value [3, 7] of the same compound?
**A.** 5.0 µg/mL

**Q.** For `Cc1cc(N(CCCl)CCCl)ccc1-c1cc(-c2ccccc2)[s+]c(-c2ccccc2)c1` [compound 7, reference compound], which “S (selectivity value)” value [1] is on record?
**A.** < 7.5

**Q.** Which Selectivity [1] does the source give for `CN(C)c1ccc(-c2cc(-c3ccccn3)[s+]c(-c3cccs3)c2)cc1` [T-1, 4-(4-dimethylaminophenyl)-2-(2-pyridyl)-6-(2-thienyl)thiapyrylium chloride] here?
**A.** 200

**Q.** What about the IC50 [1, 5] of the same compound?
**A.** 0.01 µg/mL

**Q.** What about the “T/C (test drug versus control, calculated based on 50% survival day)” value [2] of the same compound?
**A.** 200%

**Q.** What about the “CV-1 (normal cells IC50 value)” value [3, 7] of the same compound?
**A.** 2.0 µg/mL

**Q.** And the T/C (MB49 tumor cells)?
**A.** 263%

**Q.** What about the T/C [4] of the same compound?
**A.** 321%

**Q.** Which “S (selectivity value)” value [1] does the source give for `CN(C)c1ccc(-c2cc(-c3ccncc3)[s+]c(-c3cccs3)c2)cc1` [compound 4, 4-(4-Dimethylaminophenyl)-2-(4-pyridyl)-6-(2-thienyl)thiapyrylium perchlorate, reference compound] here?
**A.** 3.3

**Q.** With `CN(C)c1ccc(-c2cc(-c3ccccc3)[s+]c(-c3ccccn3)c2)cc1` [T-3, 4-(4-dimethylaminophenyl)-2-phenyl-6-(2-pyridyl)thiapyrylium perchlorate] as the compound, how does the Selectivity [1] read?
**A.** 167

**Q.** And the “CX-1 (colon carcinoma cells IC50 value)” value [1, 5]?
**A.** 0.015 µg/mL

**Q.** What about the “CX-1 (colon carcinoma cells IC50 value)” value [1, 6] of the same compound?
**A.** 0.025 µg/mL

**Q.** And the Selectivity ([1]; retest)?
**A.** 100

**Q.** And the “CV-1 (normal cells IC50 value)” value [3, 7]?
**A.** 2.5 µg/mL

**Q.** And the “CV-1 (normal cells IC50 value)” value [3, 8]?
**A.** 2.5 µg/mL

**Q.** With `CN(C)c1ccc(-c2cc(-c3ccco3)[s+]c(-c3cccs3)c2)cc1` [compound 5, 4-(4-Dimethylaminophenyl)-2-(2-furyl)-6-(2-thienyl)thiapyrylium perchlorate, reference compound] as the compound, how does the “S (selectivity value)” value [1] read?
**A.** 13.5
